For 19 compounds, EC50 and IC50 results are on record in patent US10030016B2 (Sunesis Pharmaceuticals, Inc., priority 2009, dated 2018).

Structures are written as SMILES. Where a name gives a salt, the structure may show the parent alone. Read-outs that look alike come from different tables or passages of the source.

Experiment [1] has as its system phospho-akt (Thr308) in PC-3 cells. As to the kind of experiment: Inhibition of phospho-akt (Thr308) in PC-3 cells, MSD phospho-akt 308 ELISA kit. The class given is cell-based. The method in brief: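 Phospho-Akt (Thr308) levels were measured by MSD ELISA after PC-3 cells received compound for 2 hours in serum-free medium. Controls: DMSO (high), 5 μM wortmannin (low).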

Experiment [2] has as its target PDK1 (Homo sapiens (Human), UniProt O15530). As to the kind of experiment: PDK1 kinase assay (coupled PDK1/AKT/FAM-crosstide assay, IMAP fluorescence polarization). Format: biochemical. The method in brief: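 Inhibition is derived by 4-parameter fitting of ΔmP from an IMAP fluorescence polarization read of FAM-crosstide (100 nM) phosphorylation. The cascade ran 30 min at 25 °C with 40 μM ATP, using insect-cell GST-PDK1 51-359 (0.75 nM) driving 10 nM unphosphorylated AKT2 140-467-PIFtide fusion.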
(In general: Polarisation of emitted light reports the rotation of a fluorescent probe.)

Where [3] appears, read: Homo sapiens, inhibition of P308 Akt in PC-3 cells using MSD, 2 hours, no serum, read-out: EC50.
Setting [4] is: Homo sapiens, inhibition of P308 Akt in PC-3 cells, 2 hours, no serum, MSD, read-out: EC50.
[5] abbreviates: inhibition of phospo-PDK1 in vitro.

Sequence of PDK1 (O15530 51-359): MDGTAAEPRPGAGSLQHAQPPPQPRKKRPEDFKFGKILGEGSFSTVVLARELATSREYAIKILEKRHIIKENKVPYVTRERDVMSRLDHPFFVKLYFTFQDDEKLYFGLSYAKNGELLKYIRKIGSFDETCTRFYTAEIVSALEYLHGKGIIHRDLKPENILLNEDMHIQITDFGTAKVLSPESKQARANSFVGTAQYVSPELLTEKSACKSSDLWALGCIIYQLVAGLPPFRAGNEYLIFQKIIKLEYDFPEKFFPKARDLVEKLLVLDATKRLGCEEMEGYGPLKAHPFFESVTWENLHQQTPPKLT

As a reminder, the EC50 is the concentration needed to bring the measured effect to its halfway point. For orientation: IC50 means the concentration that gives 50% inhibition. The low end stands for inhibition by little substance, the high end for a need for much substance. Regarding `NCCNc1n[nH]c2ncc(-c3ccc(CNc4ncc(C(F)(F)F)cc4C(=O)Nc4ccc(F)cc4)cc3)cc12` [Example 154, 2-(4-(3-(2-amino-ethylamino)-1H-pyrazolo [3,4-b]pyridin-5-yl)benzylamino)-N-(4-fluorophenyl)-5-(trifluoromethyl) nicotinamide], the EC50 in experiment [1] (setting [3]) is below 1000 nM. For the same compound, in experiment [2] (inhibition of PDK1 in vitro), the IC50 is below 100 nM.

As to `C[C@H](NC(=O)c1nc(C#N)cnc1NCc1ccc(-c2cnc3c(c2)c(N)nn3C)cc1)c1ccc(F)c(F)c1` [Example 414, (S)-3-(4-(3-amino-1-methyl-1H-pyrazolo[3,4-b]pyridin-5-yl)benzylamino)-6-cyano-N-(1-(3,4-difluorophenyl)ethyl) pyrazine-2-carboxamide], the EC50 in experiment [1] (setting [3]) was in the range of 1000 to 10000 nM. Moreover, the IC50 in experiment [2] (inhibition of PDK1 in vitro) fell in the range of 1000 to 5000 nM.

Take `CN1CCN(Cc2cccc(NC(=O)c3cc(C(F)(F)F)cnc3NCc3ccc(-c4cnc5[nH]nc(N)c5c4)cc3)c2)CC1` [Example 440, 2-(4-(3-amino-1H-pyrazolo[3,4-b]pyridin-5-yl)benzylamino)-N-(3-((4-methylpiperazin-1-yl)methyl)phenyl)-5-(trifluoromethyl)nicotinamide]: the EC50 in experiment [1] (setting [3]) was 1000 to 10000 nM. This compound also had an IC50 in experiment [2] (inhibition of PDK1 in vitro) of 100 to 1000 nM.

On to `N#Cc1cnc(NCc2ccc(-c3cnc4[nH]nc(N)c4c3)cc2)c(C(=O)NCc2ccc(F)cc2)n1` [Example 33, 3-(4-(3-amino-1H-pyrazolo[3,4-b]pyridin-5-yl)benzylamino)-6-cyano-N-(4-fluorobenzyl) pyrazine-2-carboxamide], for which the EC50 in experiment [1] (setting [4]) was below 1000 nM. The same compound yielded an IC50 in experiment [2] (setting [5]) below 100 nM.

For `Nc1ncnc2ccc(-c3ccc(CNc4ncccc4C(=O)Nc4ccc(F)c(C(F)(F)F)c4)s3)cc12` [Example 3.51, 2-({[5-(4-aminoquinazolin-6-yl)thiophen-2-yl]methyl}amino)-N-[4-fluoro-3-(trifluoromethyl)phenyl]pyridine-3-carboxamide (TFA salt)], the EC50 in experiment [1] (setting [4]) lay within 1000 to 10000 nM. Also, the IC50 in experiment [2] (setting [5]) is 1000 to 5000 nM.

Regarding `C[C@H](NC(=O)c1cc(C#N)cnc1NCc1ccc(-c2c[nH]c3ncnc(N)c23)cc1F)c1ccc(F)cc1` [Example 99, (S)-2-(4-(4-amino-7H-pyrrolo[2,3-d]pyrimidin-5-yl)-2-fluorobenzylamino)-5-cyano-N-(1-(4-fluorophenyl)ethyl) nicotinamide], in experiment [1] (inhibition of P308 Akt in PC-3 cells using MSD, 2 hours, no serum, read-out: EC50), the EC50 is below 1000 nM. In experiment [2] (inhibition of PDK1 in vitro), this compound had an IC50 below 100 nM.

With `COc1cc2ncnc(-c3ccc(CNc4ncccc4C(=O)N[C@@H](C)c4ccc(F)cc4)s3)c2cc1OC` [Example 2.12, (S)-2-(((5-(6,7-dimethoxyquinazolin-4-yl)thiophen-2-yl)methyl)amino)-N-(1-(4-fluorophenyl)ethyl) nicotinamide], in experiment [1] (setting [4]), the EC50 lay within 1000 to 10000 nM. The IC50 in experiment [2] (setting [5]) was above 5000 nM.

`CN(C)CCCNS(=O)(=O)c1cnc(NCc2ccc(-c3ccc4ncnc(N)c4c3)s2)c(C(=O)NCc2ccc(F)c(F)c2)c1` [Example 8.6.14, 2-(((5-(4-aminoquinazolin-6-yl)thiophen-2-yl)methyl)amino)-N-(3,4-difluorobenzyl)-5-(N-(3-(dimethylamino)propyl)sulfamoyl) nicotinamide]: the EC50 in experiment [1] (setting [4]) was above 10000 nM. In addition, the IC50 in experiment [2] (setting [5]) is below 100 nM.

For the compound `Nc1ncnc2ccc(-c3ccc(CNc4ncccc4C(=O)NCCN4CCCC4)s3)cc12` [Example 3.36, 2-({[5-(4-aminoquinazolin-6-yl)thiophen-2-yl]methyl}amino)-N-[2-(pyrrolidin-1-yl)ethyl] pyridine-3-carboxamide (TFA salt)], the EC50 in experiment [1] (setting [4]) was 1000 to 10000 nM. This compound also gave an IC50 in experiment [2] (setting [5]) above 5000 nM.

Take `C[C@H](NC(=O)c1nc(C#N)cnc1NCc1ccc(-c2cnc(N)c(-c3cccc(N)c3)n2)cc1)c1ccc(F)c(F)c1` [Example 238, 3-{4-[5-Amino-6-(3-amino-phenyl)-pyrazin-2-yl]-benzylamino}-6-cyano-pyrazine-2-carboxylic acid [(S)-1-(3,4-difluoro-phenyl)-ethyl]-amide]: the EC50 in experiment [1] (setting [3]) is below 1000 nM. This compound also registered an IC50 in experiment [2] (inhibition of PDK1 in vitro) below 100 nM.

Consider `C[C@H](NC(=O)c1nc(C#N)cnc1NCc1ccc(-c2cnc3[nH]nc(N)c3n2)cc1)c1ccc(F)c(F)c1` [Example 182, 3-[4-(3-Amino-1H-pyrazolo[3,4-b]pyrazin-5-yl)-benzylamino]-6-cyano-pyrazine-2-carboxylic acid [(S)-1-(3,4-difluoro-phenyl)-ethyl]-amide], for which the EC50 in experiment [1] (Homo sapiens, PC-3, 2 h) was below 1000 nM. This compound also gave an IC50 in experiment [2] (inhibition of PDK1 in vitro) below 100 nM.

Regarding `C[C@H](NC(=O)c1cc(C#N)cnc1NCc1ccc(-c2ccc3n[nH]c(=O)n3c2)cc1)c1ccc(F)cc1` [Example 145, (S)-5-cyano-N-(1-(4-fluorophenyl)ethyl)-2-(4-(3-oxo-2,3-dihydro-[1,2,4]triazolo[4,3-a]pyridin-6-yl)benzyl-amino)nicotinamide], in experiment [1] (setting [3]), the EC50 is above 10000 nM. Besides, in experiment [2] (inhibition of PDK1 in vitro), the IC50 was above 5000 nM.

Consider `Cn1cnc2cnc3ccc(-c4ccc(CNc5ncc(C#N)nc5C(=O)NCc5ccc(F)c(F)c5)s4)cc3c21` [Example 3.81, 6-cyano-N-(3,4-difluorobenzyl)-3-(((5-(1-methyl-1H-imidazo [4,5-c]quinolin-8-yl)thiophen-2-yl)methyl)amino)pyrazine-2-carboxamide (TFA salt)], for which, in experiment [1] (setting [4]), the EC50 was below 1000 nM. In experiment [2] (setting [5]), this compound registered an IC50 below 100 nM.

For `C[C@H](NC(=O)c1nc(C#N)cnc1NCc1ccc(-c2cn(CCCN)c3ncnc(N)c23)cc1)c1ccc(F)c(F)c1` [Example 318, (S)-3-(4-(4-amino-7-(3-aminopropyl)-7H-pyrrolo[2,3-d]pyrimidin-5-yl)benzylamino)-6-cyano-N-(1-(3,4-difluoro-phenyl)ethyl)pyrazine-2-carboxamide], in experiment [1] (setting [3]), the EC50 was below 1000 nM. Also, the IC50 in experiment [2] (inhibition of PDK1 in vitro) was below 100 nM.

For `CC(N)CCc1nc(-c2ccc(CNc3ncc(C#N)nc3C(=O)N[C@@H](C)c3ccc(F)c(F)c3)cc2)cnc1N` (stereo partly drawn) [Example 87, 3-{4-[5-Amino-6-(3-amino-butyl)-pyrazin-2-yl]-benzylamino}-6-cyano-pyrazine-2-carboxylic acid [(S)-1-(3,4-difluoro-phenyl)-ethyl]-amide], in experiment [1] (setting [3]), the EC50 was below 1000 nM. This compound showed an IC50 in experiment [2] (inhibition of PDK1 in vitro) below 100 nM.

In the case of `Cc1nc(/C=C2\C(=O)Nc3cc(/C=C/CNc4ncccc4C(=O)NCc4ccc(F)c(F)c4)ccc32)[nH]c1C` [Example 15.13, N-(3,4-Difluoro-benzyl)-2-((E)-3-{3-[1-(4,5-dimethyl-1H-imidazol-2-yl)-meth-(Z)-ylidene]-2-oxo-2,3-dihydro-1H-indol-6-yl}-allylamino)-nicotinamide], the EC50 in experiment [1] (setting [4]) lay within 1000 to 10000 nM. For the same compound, the IC50 in experiment [2] (setting [5]) was below 100 nM.

Regarding `CNc1cnc2ccc(-c3ccc(CNc4ncccc4C(=O)N[C@@H](C)c4ccc(F)c(F)c4)s3)cc2n1` [Example 4.28, (S)-N-(1-(3,4-difluoro-phenyl)ethyl)-2-(((5-(3-(methyl)amino)quinoxalin-6-yl)thiophen-2-yl)methylamino) nicotinamide], the EC50 in experiment [1] (setting [4]) fell in the range of 1000 to 10000 nM. Also, the IC50 in experiment [2] (setting [5]) lay within 100 to 1000 nM.

Consider `COc1cc(-c2ccc(CNc3ncc(C#N)cc3C(=O)N[C@@H](C)c3ccc(F)cc3)cc2)cnc1N` [Example 133, (S)-2-(4-(6-amino-5-methoxypyridin-3-yl)benzylamino)-5-cyano-N-(1-(4-fluorophenyl)ethyl)nicotinamide], for which the EC50 in experiment [1] (setting [3]) is below 1000 nM. Also, in experiment [2] (inhibition of PDK1 in vitro), the IC50 is below 100 nM.

With `CCN(CC)CCNC(=O)c1cc(-c2ccc(CNc3ncc(C#N)cc3C(=O)N[C@@H](C)c3ccc(F)cc3)cc2)cnc1N` [Example 118], the EC50 in experiment [1] (setting [3]) was 1000 to 10000 nM. The IC50 in experiment [2] (inhibition of PDK1 in vitro) was below 100 nM.
